From US20230174523A1, “BENZENESULFONAMIDE DERIVATIVES AS TRAP1 MODULATORS AND USES THEREOF” (Amathus Therapeutics, Inc., priority 2020, published 2023) come the findings set out here.

This experiment deals with T1, TRAP1 enzyme (Homo sapiens, UniProt Q12931).
T1 sequence (Q12931 60-704): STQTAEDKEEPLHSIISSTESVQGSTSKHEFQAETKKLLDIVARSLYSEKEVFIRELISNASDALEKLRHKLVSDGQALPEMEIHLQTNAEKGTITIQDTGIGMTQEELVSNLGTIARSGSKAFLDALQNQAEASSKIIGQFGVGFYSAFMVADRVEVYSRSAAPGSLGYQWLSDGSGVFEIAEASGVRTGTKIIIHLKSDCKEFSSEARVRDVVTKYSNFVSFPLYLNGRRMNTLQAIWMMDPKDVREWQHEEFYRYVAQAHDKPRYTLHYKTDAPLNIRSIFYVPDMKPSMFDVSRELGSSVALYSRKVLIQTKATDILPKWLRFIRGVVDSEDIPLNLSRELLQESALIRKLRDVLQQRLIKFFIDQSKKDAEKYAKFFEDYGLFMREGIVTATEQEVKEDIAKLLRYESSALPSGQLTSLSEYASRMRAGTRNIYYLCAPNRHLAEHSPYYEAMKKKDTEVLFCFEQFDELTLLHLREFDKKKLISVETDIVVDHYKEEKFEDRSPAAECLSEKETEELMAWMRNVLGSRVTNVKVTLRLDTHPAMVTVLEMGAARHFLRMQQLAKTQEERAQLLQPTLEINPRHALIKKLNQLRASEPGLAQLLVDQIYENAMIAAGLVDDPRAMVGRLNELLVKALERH
Put plainly: Malachite green phosphate assay of TRAP1 ATPase activity. The class given is biochemical. Particulars: for EC50: TRAP1 ATPase activation, 150 nM Trap1, 20 μM ATP, geometric mean, read-out: Malachite Green Fluor DRC: GeoMean EC50; for Emax: read-out: Malachite Green Fluor DRC: Mean Emax. In a few lines:
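Compound (0.78 μM-100 μM) preincubated with 150 nM TRAP1 in 50 mM HEPES pH 7.5, 20 mM KCl, 4 mM MgCl2, 0.05% BSA, 30 min at 37 °C; reaction started with 20 μM ATP, 180 min at 37 °C. Phosphate quantified by malachite green against a standard curve; Emax and EC50 from sigmoidal fits of activation.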

The EC50 is the concentration giving half of the maximal effect. By Emax is commonly meant the size of the effect at its maximum, as opposed to the concentration needed. For `COc1ccc(NC(=O)c2cnc(C(F)(F)F)[nH]2)cc1S(=O)(=O)N(CCCCN1CCCC1)c1ccc(Br)cc1` [Compound 437], the 50% effective concentration (EC50) lay in the range of 20 to 100 µM and the Emax was in the range of 160 to 199%.
With `COc1ccc(NC(=O)c2cnc(C(F)(F)F)[nH]2)cc1S(=O)(=O)N(CCCCCN1CCCC1)c1ccc(Br)cc1` [Compound 439], the EC50 was in the range of 20 to 100 µM and the Emax lay in the range of 160 to 199%.
The corresponding values for `COc1ccc(NC(=O)c2ncc(-c3ccccc3)s2)cc1S(=O)(=O)Nc1c(C)cccc1C` [Compound 449] are 10 to 20 µM and 123 to 159%.
Taken in the same sequence, the figures for `COc1ccc(NC(=O)c2ncc(-c3ccccc3)o2)cc1S(=O)(=O)Nc1c(Cl)cccc1Cl` [Compound 451] were less than 10 µM and 123 to 159%.
As for `COc1ccc(NC(=O)c2nnc(-c3ccccc3)o2)cc1S(=O)(=O)Nc1c(Cl)cccc1Cl` [Compound 469], the EC50 is less than 10 µM and the Emax is 160 to 199%.
Taken in the same sequence, the figures for `COc1ccc(NC(=O)c2cnc(-c3ccccc3)o2)cc1S(=O)(=O)Nc1c(C)cccc1C` [Compound 470] were less than 10 µM and 200 to 300%.
Taken in the same sequence, the figures for `COc1ccc(NC(=O)c2cnccc2C)cc1S(=O)(=O)Nc1c(C)cccc1C` [Compound 471] were 20 to 100 µM and 160 to 199%.
As to `O=C(Nc1cccc(S(=O)(=O)N2CCOc3cc(Cl)ccc32)c1)c1ncc(-c2ccccc2)o1` [Compound 477], the EC50 is less than 10 µM and the Emax lay in the range of 160 to 199%.
The corresponding values for `Cc1ncoc1C(=O)Nc1cccc(S(=O)(=O)N2CCOc3cc(Cl)ccc32)c1` [Compound 479] are 10 to 20 µM and 160 to 199%.
Taken in the same sequence, the figures for `COc1ccc(NC(=O)c2csc(-c3ccccc3)n2)cc1S(=O)(=O)Nc1ccc(Cl)cc1` [Compound 487] were 10 to 20 µM and 160 to 199%.
Taken in the same sequence, the figures for `COc1ccc(NC(=O)c2oc(-c3ccccc3)nc2C)cc1S(=O)(=O)Nc1ccc(Cl)cc1` [Compound 488] were 10 to 20 µM and 200 to 300%.
Consider `COc1ccc(NC(=O)c2cnccc2C(C)C)cc1S(=O)(=O)Nc1ccc(Br)cc1` [Compound 493], for which the EC50 was 20 to 100 µM and the Emax lay in the range of 160 to 199%.
Taken in the same sequence, the figures for `COc1ccc(NC(=O)c2cnccc2C(C)C)cc1S(=O)(=O)Nc1ccc(Cl)cc1` [Compound 496] were 20 to 100 µM and 160 to 199%.
Take `COc1ccc(NC(=O)c2ccc(-c3ccccc3)o2)cc1S(=O)(=O)Nc1ccc(Cl)cc1` [Compound 499]: the half-maximal effective concentration (EC50) was 20 to 100 µM and the Emax lay within 160 to 199%.
Consider `COc1ccc(NC(=O)c2nnc(-c3ccccc3)s2)cc1S(=O)(=O)Nc1ccc(Cl)cc1` [Compound 500], for which the EC50 is 10 to 20 µM and the Emax lay within 200 to 300%.
Taken in the same sequence, the figures for `O=C(Nc1ccc(F)c(S(=O)(=O)Nc2c(F)cc(Cl)cc2F)c1)c1ncc(-c2ccccc2)o1` [Compound 503] were less than 10 µM and 123 to 159%.
Consider `Cc1ncoc1C(=O)Nc1cccc(S(=O)(=O)N2CCC(C)(C)c3cc(Cl)ccc32)c1` [Compound 517], for which the EC50 was in the range of 10 to 20 µM and the Emax is 160 to 199%.
For `COc1ccc(NC(=O)c2cnc(-c3ccccc3)[nH]2)cc1S(=O)(=O)N(CCOCCOCCOCCN)c1ccc(Br)cc1` [Compound 526, N-(3-(N-(2-(2-(2-(2-aminoethoxy)ethoxy)ethoxy)ethyl)-N-(4-bromophenyl)sulfamoyl)-4-methoxyphenyl)-2-phenyl-1H-imidazole-5-carboxamide], the 50% effective concentration (EC50) fell in the range of 20 to 100 µM and the Emax was more than 300%.
For the molecule `CC1(C)CCN(S(=O)(=O)c2cccc(NC(=O)c3cnc(-c4ccccc4)[nH]3)c2)c2ccc(Cl)cc21` [Compound 534], the EC50 was in the range of 20 to 100 µM and the maximum response (Emax) fell in the range of 200 to 300%.
The corresponding values for `COc1ccc(NC(=O)c2nc(Br)ccc2C)cc1S(=O)(=O)Nc1ccc(Cl)cc1` [Compound 537] are 10 to 20 µM and 200 to 300%.
The corresponding values for `Cc1ccc(NS(=O)(=O)c2cc(NC(=O)c3ncc(-c4ccccc4)o3)ccc2CC(=O)O)cc1` [Compound 541] are 20 to 100 µM and 200 to 300%.
Turning to `C=C(C)c1nc(C(=O)Nc2ccc(OC)c(S(=O)(=O)Nc3ccc(Cl)cc3)c2)oc1-c1ccccc1` [Compound 545], the EC50 was less than 10 µM and the Emax is 123 to 159%.
As for `COc1ccc(NC(=O)c2cnc[nH]2)cc1S(=O)(=O)N(CCOCCOCCOCCN)c1ccc(Br)cc1` [Compound 546], the EC50 fell in the range of 20 to 100 µM and the Emax fell in the range of 160 to 199%.
Take `CCc1ccc(NC(=O)c2ncc(-c3ccccc3)o2)cc1S(=O)(=O)Nc1ccc(Cl)nc1` [Compound 548]: the half-maximal effective concentration (EC50) was less than 10 µM and the Emax fell in the range of 123 to 159%.
Taken in the same sequence, the figures for `Cc1ncoc1C(=O)Nc1cccc(S(=O)(=O)N(c2ccc(Cl)cc2)C(C)C)c1` [Compound 551] were 10 to 20 µM and 160 to 199%.
With `CCOC(=O)Cc1ccc(NC(=O)c2ncc(-c3ccccc3)o2)cc1S(=O)(=O)Nc1ccc(Cl)cc1` [Compound 558], the EC50 lay within 10 to 20 µM and the Emax was in the range of 160 to 199%.
The corresponding values for `COc1ccc(NC(=O)c2nc(-c3ccccc3)ccc2C)cc1S(=O)(=O)Nc1ccc(Cl)cc1` [Compound 565, N-(3-(N-(4-chlorophenyl)sulfamoyl)-4-methoxyphenyl)-3-methyl-6-phenylpicolinamide] are 20 to 100 µM and 123 to 159%.
`CCc1ccc(NC(=O)c2ncn(C)n2)cc1S(=O)(=O)Nc1ccc(Cl)cc1` [Compound 575]: the EC50 fell in the range of 20 to 100 µM and the Emax fell in the range of 160 to 199%.
The corresponding values for `CC(C)c1ccc(NC(=O)c2cnc(-c3ccccc3)o2)cc1S(=O)(=O)Nc1ccc(Cl)cc1` [Compound 576] are 10 to 20 µM and 160 to 199%.
The corresponding values for `CC(C)c1ccc(NC(=O)c2ncc(-c3ccccc3)o2)cc1S(=O)(=O)Nc1ccc(Cl)cc1` [Compound 580] are less than 10 µM and 123 to 159%.
`COc1ccc(NC(=S)c2ncc(-c3ccccc3)o2)cc1S(=O)(=O)Nc1ccc(Cl)cc1` [Compound 583, N-(3-(N-(4-chlorophenyl)sulfamoyl)-4-methoxyphenyl)-5-phenyloxazole-2-carbothioamide]: the concentration for a half-maximal effect (EC50) is 10 to 20 µM and the Emax lay in the range of 160 to 199%.
With `C=C(C)c1ncoc1C(=O)Nc1ccc(OC)c(S(=O)(=O)Nc2ccc(Cl)cc2)c1` [Compound 593], the EC50 lay within 20 to 100 µM and the Emax is 200 to 300%.
Turning to `CCc1ccc(NC(=O)c2nnc(-c3ccccc3)[nH]2)cc1S(=O)(=O)Nc1ccc(Cl)cc1` [Compound 595], the EC50 is 10 to 20 µM and the Emax fell in the range of 200 to 300%.
With `COc1ccc(NC(=S)c2ncco2)cc1S(=O)(=O)Nc1ccc(Cl)cc1` [Compound 598, N-(3-(N-(4-chlorophenyl)sulfamoyl)-4-methoxyphenyl) oxazole-2-carbothioamide], the EC50 lay within 20 to 100 µM and the Emax is 200 to 300%.
Taken in the same sequence, the figures for `CCOC(=O)/C=C/c1ccc(NC(=O)c2ncc(-c3ccccc3)o2)cc1S(=O)(=O)Nc1ccc(Cl)cc1` [Compound 634] were less than 10 µM and 123 to 159%.
For the molecule `COc1ccc(NC(=O)c2cnc(-c3ccccc3)[nH]2)cc1S(=O)(=O)N(CCOCCOCCN)c1ccc(Br)cc1` [Compound 637], the EC50 is 20 to 100 µM and the Emax was more than 300%.
